For this test, the target named is T1, cholesteryl ester transfer protein (Homo sapiens, UniProt P11597).
T1 construct: As a source of cholesteryl ester transfer protein, plasma from healthy humans was used; from tissue; host or cells: plasma from healthy humans
T1 sequence (P11597 18-493): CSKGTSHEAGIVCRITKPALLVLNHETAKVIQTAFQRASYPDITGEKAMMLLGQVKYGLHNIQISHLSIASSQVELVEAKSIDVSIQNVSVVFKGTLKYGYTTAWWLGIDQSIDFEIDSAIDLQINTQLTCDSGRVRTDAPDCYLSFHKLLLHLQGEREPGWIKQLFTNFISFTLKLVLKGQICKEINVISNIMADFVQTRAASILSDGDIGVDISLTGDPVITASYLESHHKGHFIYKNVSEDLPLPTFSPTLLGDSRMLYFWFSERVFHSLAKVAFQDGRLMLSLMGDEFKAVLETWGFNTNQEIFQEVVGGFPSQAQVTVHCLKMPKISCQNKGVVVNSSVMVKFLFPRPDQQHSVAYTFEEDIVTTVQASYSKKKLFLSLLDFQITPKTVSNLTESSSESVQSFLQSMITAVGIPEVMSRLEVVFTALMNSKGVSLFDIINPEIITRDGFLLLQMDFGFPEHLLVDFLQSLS
Kind of test: In vitro test for the ability to inhibit cholesteryl ester transfer. In kind it is biochemical. Particulars: [3H]-cholesteryl oleate transfer from rHDL-agarose to LDL; human plasma as CETP source; 37° C.; 16-10000 nM, duplicate. An excerpt: In Vitro Test for the Ability to Inhibit Cholesteryl Ester Transfer
1. Preparation of Cholesteryl Ester Donor
In order to prepare a cholesteryl ester donor to be used in the test, a radiolabeled recombinant HDL containing [^3H]-cholesteryl oleate (GE healthcare, TRK886, 3.5 μCi/mg of apoA-1) and apoA-1 was synthesized. Then, rHDL-agarose obtained by immobilizing the recombinant HDL with CNBr-activated Sepharose 4B resin (Amersham Biosciences, Sweden) was used in the test.
2. Cholesteryl Ester Transfer Test
As a source of cholesteryl ester transfer protein, plasma from healthy humans was used, and as cholesteryl ester receptor, LDL from healthy humans was used. Each of test compounds was added to be final concentrations of 16, 80, 400, 2000 and 10000 nM and tested in duplicate. In order to test cholesteryl ester transfer, 20 μl of plasma, 50 μl of LDL (0.25 mg/ml) and 50 μl of rHDL-agarose (0.25 mg/ml) were mixed with each other, and a solution of each test compound was added thereto and reacted thereto at 37° C. Then, the reaction solution was centrifuged at 4° C. for 3 minutes, thereby the reaction was stopped. 150 μl of the supernatant was transferred into a 96-well plate for radioactivity measurement, and the radioactivity thereof was measured with a beta-ray detector.
3. Statistical Processing
The ratio of [^3H]-cholesteryl oleate transferred from HDL to LDL was determined, and based on the determined ratio, the IC50 value of each compound was determined using GraphPad Prism 5.0.

`COc1ccc(CC2(C(=O)O)CCC2)cc1C1=C(CN2C(=O)O[C@H](c3cc(C(F)(F)F)cc(C(F)(F)F)c3)[C@@H]2C)CC(C)(C)CC1` [Compound 313, 1-(3-(2-(((4S,5R)-5-(3,5-bis(trifluoromethyl)phenyl)-4-methyl-2-oxooxazolidin-3-yl)methyl)-4,4-dimethylcyclohex-1-enyl)-4-methoxybenzyl)cyclobutanecarboxylic acid] displayed an IC50 of 20 nM.

With `COc1cc(F)c(C(=O)C2CC2)cc1C1=C(CN2C(=O)O[C@H](c3cc(C(F)(F)F)cc(C(F)(F)F)c3)[C@@H]2C)CC(C)(C)CC1` [Compound 192, (4S,5R)-5-(3,5-bis(trifluoromethyl)phenyl)-3-((2-(5-(cyclopropanecarbonyl)-4-fluoro-2-methoxyphenyl)-5,5-dimethylcyclohex-1-enyl)methyl)-4-methyloxazolidin-2-one], the IC50 is 60 nM.

`COc1cc(C(F)(F)F)c(N(C)S(=O)(=O)C(F)(F)F)cc1C1=C(CN2C(=O)O[C@H](c3cc(C(F)(F)F)cc(C(F)(F)F)c3)[C@@H]2C)CC(C)(C)CC1` [Compound 209, N-(5-(2-(((4S,5R)-5-(3,5-bis(trifluoromethyl)phenyl)-4-methyl-2-oxooxazolidin-3-yl)methyl)-4,4-dimethylcyclohex-1-enyl)-4-methoxy-2-(trifluoromethyl)phenyl)trifluoro-N-methylmethanesulfonamide] yielded an IC50 of 10 nM.

`COc1ccc(N)cc1C1=C(CN2C(=O)O[C@H](c3cc(C(F)(F)F)cc(C(F)(F)F)c3)[C@@H]2C)CC(C(F)(F)F)CC1` (stereo partly drawn) [Compound 195, (4S,5R)-3-((2-(5-amino-2-methoxyphenyl)-5-(trifluoromethyl)cyclohex-1-enyl)methyl)-5-(3,5-bis(trifluoromethyl)phenyl)-4-methyloxazolidin-2-one]: half-maximal inhibition (IC50) was put at 840 nM.

With `COc1cc(F)c(C(C)C)cc1C1=C(CN2C(=O)O[C@H](c3cc(C(F)(F)F)cc(C(F)(F)F)c3)[C@@H]2C)CN(C(C)C)CC1` [Compound 265, (4S,5R)-5-(3,5-bis(trifluoromethyl)phenyl)-3-((4-(4-fluoro-5-isopropyl-2-methoxyphenyl)-1-isopropyl-1,2,5,6-tetrahydropyridin-3-yl)methyl)-4-methyloxazolidin-2-one], the IC50 came to 164 nM.

`COc1ccc(CN2CC[C@H](F)C2)cc1C1=C(CN2C(=O)O[C@H](c3cc(C(F)(F)F)cc(C(F)(F)F)c3)[C@@H]2C)CC(C)(C)CC1` [Compound 367, (4S,5R)-5-(3,5-bis(trifluoromethyl)phenyl)-3-((2-(5-(((S)-3-fluoropyrrolidin-1-yl)methyl)-2-methoxyphenyl)-5,5-dimethylcyclohex-1-enyl)methyl)-4-methyloxazolidin-2-one] displayed an IC50 of 83 nM.

Take `COc1ccc(N(C)C(=O)CC(F)(F)F)cc1C1=C(CN2C(=O)O[C@H](c3cc(C(F)(F)F)cc(C(F)(F)F)c3)[C@@H]2C)CC(C)(C)CC1` [Compound 130, N-(3-(2-(((4S,5R)-5-(3,5-bis(trifluoromethyl)phenyl)-4-methyl-2-oxooxazolidin-3-yl)methyl)-4,4-dimethylcyclohex-1-enyl)-4-methoxyphenyl)-3,3,3-trifluoro-N-methylpropanamide]: the 50% inhibitory concentration (IC50) amounted to 20 nM.

On to `COc1ccc(CCC#N)cc1C1=C(CN2C(=O)O[C@H](c3cc(C(F)(F)F)cc(C(F)(F)F)c3)[C@@H]2C)CC(C)(C)CC1` [Compound 300, 3-(3-(2-(((4S,5R)-5-(3,5-bis(trifluoromethyl)phenyl)-4-methyl-2-oxooxazolidin-3-yl)methyl)-4,4-dimethylcyclohex-1-enyl)-4-methoxyphenyl)propanenitrile], for which the IC50 amounted to 1 nM.

Compound `COc1cc(F)c(OC(C)C)cc1C1=C(CN2C(=O)O[C@H](c3cc(C(F)(F)F)cc(C(F)(F)F)c3)[C@@H]2C)CC(C)(C)CC1` [Compound 241, (4S,5R)-5-(3,5-bis(trifluoromethyl)phenyl)-3-((2-(4-fluoro-5-isopropoxy-2-methoxyphenyl)-5,5-dimethylcyclohex-1-enyl)methyl)-4-methyloxazolidin-2-one] had an IC50 of 390 nM.

`COc1ccc(C(O)(C(F)(F)F)C(F)(F)F)cc1C1=C(CN2C(=O)O[C@H](c3cc(C(F)(F)F)cc(C(F)(F)F)c3)[C@@H]2C)CC(C)(C)CC1` [Compound 181, (4S,5R)-5-(3,5-bis(trifluoromethyl)phenyl)-3-((2-(5-(1,1,1,3,3,3-hexafluoro-2-hydroxypropan-2-yl)-2-methoxyphenyl)-5,5-dimethylcyclohex-1-enyl)methyl)-4-methyloxazolidin-2-one] yielded a half-inhibitory concentration (IC50) of 50 nM.

Regarding `COc1ccc(-c2nnn(C)n2)cc1C1=C(CN2C(=O)O[C@H](c3cc(C(F)(F)F)cc(C(F)(F)F)c3)[C@@H]2C)CC(C)(C)CC1` [Compound 338, (4S,5R)-5-(3,5-bis(trifluoromethyl)phenyl)-3-((2-(2-methoxy-5-(2-methyl-2H-tetrazol-5-yl)phenyl)-5,5-dimethylcyclohex-1-enyl)methyl)-4-methyloxazolidin-2-one], inhibition was half-maximal at 35 nM (IC50).

As to `COc1ccc(N(C)C(=O)C(C)(C)OC(C)=O)cc1C1=C(CN2C(=O)O[C@H](c3cc(C(F)(F)F)cc(C(F)(F)F)c3)[C@@H]2C)CC(C)(C)CC1` [Compound 243, 1-((3-(2-(((4S,5R)-5-(3,5-bis(trifluoromethyl)phenyl)-4-methyl-2-oxooxazolidin-3-yl)methyl)-4,4-dimethylcyclohex-1-enyl)-4-methoxyphenyl)(methyl)amino)-2-methyl-1-oxopropan-2-yl acetate], the midpoint of inhibition, the IC50, lay at 9 nM.

With `COc1ccc(C2(C#N)CC2)cc1C1=C(CN2C(=O)O[C@H](c3cc(C(F)(F)F)cc(C(F)(F)F)c3)[C@@H]2C)CC(C)(C)CC1` [Compound 189, 1-(3-(2-(((4S,5R)-5-(3,5-bis(trifluoromethyl)phenyl)-4-methyl-2-oxooxazolidin-3-yl)methyl)-4,4-dimethylcyclohex-1-enyl)-4-methoxyphenyl)cyclopropanecarbonitrile], the 50% inhibitory concentration (IC50) turned out to be 20 nM.

For `COC(=O)C(C)(C)Cc1ccc(OC)c(C2=C(CN3C(=O)O[C@H](c4cc(C(F)(F)F)cc(C(F)(F)F)c4)[C@@H]3C)CC(C)(C)CC2)c1` [Compound 285, methyl 3-(3-(2-(((4S,5R)-5-(3,5-bis(trifluoromethyl)phenyl)-4-methyl-2-oxooxazolidin-3-yl)methyl)-4,4-dimethylcyclohex-1-enyl)-4-methoxyphenyl)-2,2-dimethylpropanoate], the IC50 is 33 nM.

Compound `COc1ccc(OC(F)(F)F)cc1C1=C(CN2C(=O)O[C@H](c3cc(C(F)(F)F)cc(C(F)(F)F)c3)[C@@H]2C)CC(C)(C)CC1` [Compound 117, (4S,5R)-5-(3,5-bis(trifluoromethyl)phenyl)-3-((2-(2-methoxy-5-(trifluoromethoxy)phenyl)-5,5-dimethylcyclohex-1-enyl)methyl)-4-methyloxazolidin-2-one] had an IC50 of 80 nM.

With `COc1ccc(N(C)c2nc(C(F)(F)F)cs2)cc1C1=C(CN2C(=O)O[C@H](c3cc(C(F)(F)F)cc(C(F)(F)F)c3)[C@@H]2C)CC(C)(C)CC1` [Compound 212, (4S,5R)-5-(3,5-bis(trifluoromethyl)phenyl)-3-((2-(2-methoxy-5-(methyl(4-(trifluoromethyl)thiazol-2-yl)amino)phenyl)-5,5-dimethylcyclohex-1-enyl)methyl)-4-methyloxazolidin-2-one], the IC50 was 80 nM.

On to `COc1cc(F)c(C2(C)CC2)cc1C1=C(CN2C(=O)O[C@H](c3cc(C(F)(F)F)cc(C(F)(F)F)c3)[C@@H]2C)CC2(CC1)CC2` [Compound 303, (4S,5R)-5-(3,5-bis(trifluoromethyl)phenyl)-3-((6-(4-fluoro-2-methoxy-5-(1-methylcyclopropyl)phenyl)spiro[2.5]oct-5-en-5-yl)methyl)-4-methyloxazolidin-2-one], for which 5 nM corresponded to half-maximal inhibition (IC50).

In the case of `COc1ccc(NC(C)=O)cc1C1=C(CN2C(=O)O[C@H](c3cc(C(F)(F)F)cc(C(F)(F)F)c3)[C@@H]2C)CC(C(F)(F)F)CC1` (stereo partly drawn) [Compound 196, N-(3-(2-(((4S,5R)-5-(3,5-bis(trifluoromethyl)phenyl)-4-methyl-2-oxooxazolidin-3-yl)methyl)-4-(trifluoromethyl)cyclohex-1-enyl)-4-methoxyphenyl)acetamide], the IC50 is 490 nM.

What is called IC50 is the concentration at which inhibition is half-maximal.

The values above are taken from US9371294B2, “Cycloalkenyl aryl derivatives for CETP inhibitor” (CHONG KUN DANG PHARMACEUTICAL CORP., priority 2011, dated 2016).
